A value given as a limit tells only on which side of the number the result lay.

One assay deals with T1, mouse 11β-HSD1 (Mus musculus, UniProt P50172).
T1 construct: 100 ug/ml human/mouse liver microsomes; from tissue; host or cells: mouse liver microsomes
Briefly: Enzyme activity analysis on mouse 11β-HSD1 (HTRF cortisol, liver microsomes). The format is biochemical. The note with it: second value of cell. The procedure: (§1) After culturing at 37° C. for 2 hours, 5 μl of cryptate-labeled anti-cortisol antibody and 5 μl of d2-labeled cortisol were added thereto. After further culturing at room temperature for 2 hours, a homogeneous time-resolved fluorescence (HTRF, Cisbio) signal was measured. From each analysis, based on a standard curve calculated using cortisols of several known concentrations, an amount of produced cortisol was tested.
(§2) While an amount of cortisol, produced without the compound, was used as a control, an inhibition percentage by the test compound, at each concentration, was calculated. By using an inhibition curve calculated by coordinates of inhibition percentage to test compound concentration, an IC50 value of the compound on 11β-HSD1 was obtained.

In a further assay the target is T2, human 11β-HSD1 (Homo sapiens, UniProt P28845).
T2 construct: 100 ug/ml human/mouse liver microsomes; from tissue; host or cells: human liver microsomes
Briefly: Enzyme activity analysis on human 11β-HSD1 (HTRF cortisol, liver microsomes). The format is biochemical. The note with it: first value of cell. How it is done:
as §1, §2
(In general: Time-resolved FRET reads energy transfer from a long-lived donor to a nearby acceptor.)

T2 sequence (P28845 whole entry): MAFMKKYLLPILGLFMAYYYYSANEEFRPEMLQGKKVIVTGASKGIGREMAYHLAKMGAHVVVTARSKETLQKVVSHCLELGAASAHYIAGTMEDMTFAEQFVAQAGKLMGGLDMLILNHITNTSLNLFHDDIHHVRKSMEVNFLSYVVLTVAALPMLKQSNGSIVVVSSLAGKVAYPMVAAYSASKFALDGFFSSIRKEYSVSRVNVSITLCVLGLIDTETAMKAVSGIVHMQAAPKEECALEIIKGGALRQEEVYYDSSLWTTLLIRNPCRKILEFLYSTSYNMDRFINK
T1 sequence (P50172 whole entry): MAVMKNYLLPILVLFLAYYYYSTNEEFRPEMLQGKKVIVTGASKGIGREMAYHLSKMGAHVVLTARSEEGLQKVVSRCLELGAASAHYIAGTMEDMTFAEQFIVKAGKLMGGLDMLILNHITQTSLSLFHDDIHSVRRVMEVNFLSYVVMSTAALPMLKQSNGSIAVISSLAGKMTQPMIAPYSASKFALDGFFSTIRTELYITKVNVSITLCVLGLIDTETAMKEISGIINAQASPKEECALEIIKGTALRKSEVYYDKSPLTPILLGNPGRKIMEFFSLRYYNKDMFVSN

`Cc1ccccc1S(=O)(=O)NC1(C(=O)NC2C3CC4CC2CC(C(N)=O)(C4)C3)CCCC1` (stereo not shown) [compound 169, N-4-(1-(2-methylphenylsulfonamido)cyclopentanecarboxyamido)adamantane-1-carboxyamide]: the IC50 – broadly, the concentration at which inhibition is half-maximal – at mouse 11β-HSD1 is 0.049 µM; at human 11β-HSD1 it was 0.03 µM.

For the compound `NC(=O)C12CC3CC(C1)C(NC(=O)C1(NS(=O)(=O)c4ccccc4Br)CCC1)C(C3)C2` (stereo not shown) [compound 155, N-4-(1-(2-bromophenylsulfonamido)cyclobutanecarboxyamido)adamantane-1-carboxyamide], the results for the IC50 on mouse 11β-HSD1 and on human 11β-HSD1 were 0.145 µM and 0.024 µM, respectively.

On to `NC(=O)C12CC3CC(C1)C(NC(=O)C1(NS(=O)(=O)c4ccc(OC(F)F)cc4)CCC1)C(C3)C2` (stereo not shown) [compound 166, N-4-(1-(4-(difluoromethoxy)phenylsulfonamido)cyclobutanecarboxyamido)adamantane-1-carboxyamide], for which the IC50 at mouse 11β-HSD1 came out at 0.559 µM; against human 11β-HSD1, 0.724 µM.

As to `CC(C)(NS(=O)(=O)c1c(F)cccc1F)C(=O)NC1C2CC3CC(C2)CC1C3` (stereo not shown) [compound 41, N-(adamantane-2-yl)-2-methyl-2-(2,6-difluorophenylsulfonamido)propanamide], the half-maximal inhibitory concentration (IC50) at mouse 11β-HSD1 came to 0.156 µM; on human 11β-HSD1, 0.041 µM.

For the compound `CCN(C(C)(C)C(=O)NC1C2CC3CC1CC(C(N)=O)(C3)C2)S(=O)(=O)c1cccc(Cl)c1C` (stereo not shown) [compound 215], the results for the IC50 on mouse 11β-HSD1 and on human 11β-HSD1 were 0.284 µM and 0.004 µM, respectively.

Take `COc1ccc(S(=O)(=O)NC2(C(=O)NC3C4CC5CC3CC(C(N)=O)(C5)C4)CCC2)cc1F` (stereo not shown) [compound 154, N-4-(1-(3-fluoro-4-methoxyphenylsulfonamido)cyclobutanecarboxyamido)adamantane-1-carboxyamide]: the IC50 at mouse 11β-HSD1 stood at 0.565 µM; at human 11β-HSD1, 1.63 µM.

Consider `CNC(=O)C12CC3CC(C1)C(NC(=O)C(C)(C)NS(=O)(=O)c1ccccc1Cl)C(C3)C2` (stereo not shown) [compound 237, 4-[2-(2-chloro-benzenesulfonylamino)-2-methyl-propionylamino]-adamantane-1-carboxylic acid methylamide], for which the half-maximal inhibitory concentration (IC50) was 0.437 µM against mouse 11β-HSD1 and 1.5 µM against human 11β-HSD1.

`CC(C)(NS(=O)(=O)Cc1ccccc1Cl)C(=O)NC1C2CC3CC1CC(C(N)=O)(C3)C2` (stereo not shown) [compound 98, N-4-(2-((2-chlorophenyl)methylsulfonamido)-2-methylpropanamido)adamantane-1-carboxyamide]: the half-maximal inhibitory concentration (IC50) at mouse 11β-HSD1 and against human 11β-HSD1 was above 2.5 µM each time.

With `CN(C(C)(C)C(=O)NC1C2CC3CC1CC(O)(C3)C2)S(=O)(=O)c1cccc(Cl)c1Cl` (stereo not shown) [compound 203, N-(5-hydroxyadamantane-2-yl)-2-(2,3-dichloro-N-methylphenylsulfonamido)-2-methylpropanamide], the figures for the half-maximal inhibitory concentration (IC50) against mouse 11β-HSD1 and at human 11β-HSD1 were 0.039 µM and 0.01 µM, respectively.

Turning to `CCN(C(C)(C)C(=O)NC1C2CC3CC1CC(C(N)=O)(C3)C2)S(=O)(=O)c1c(F)cccc1F` (stereo not shown) [compound 213, N-4-(2-(2,6-difluoro-N-ethylphenylsulfonamido)-2-methylpropanamido)adamantane-1-carboxyamide], the IC50 at mouse 11β-HSD1 amounted to 0.235 µM; on human 11β-HSD1, 0.005 µM.

Take `CC(C)(NS(=O)(=O)c1ccc(F)cc1Br)C(=O)NC1C2CC3CC1CC(C(N)=O)(C3)C2` (stereo not shown) [compound 101, N-4-(2-(2-bromo-4-fluorophenylsulfonamido)-2-methylpropanamido)adamantane-1-carboxyamide]: the IC50 turned out to be 0.014 µM at mouse 11β-HSD1 and 0.009 µM against human 11β-HSD1.

With `CC(C)(NS(=O)(=O)c1c(Cl)cc(Cl)cc1Cl)C(=O)NC1C2CC3CC1CC(C(N)=O)(C3)C2` (stereo not shown) [compound 112, N-4-(2-(2,4,6-trichlorophenylsulfonamido)-2-methylpropanamido)adamantane-1-carboxy amide], the IC50 against mouse 11β-HSD1 amounted to 0.011 µM; against human 11β-HSD1, 0.024 µM.

On to `Cc1ccc(S(=O)(=O)NC2(C(=O)NC3C4CC5CC3CC(C(N)=O)(C5)C4)CCC2)cc1[N+](=O)[O-]` (stereo not shown) [compound 150, N-4-(1-(3-nitro-4-methylphenylsulfonamido)cyclobutanecarboxyamido)adamantane-1-carboxyamide], for which the figures for the IC50 at mouse 11β-HSD1 and against human 11β-HSD1 were 0.187 µM and 0.639 µM, respectively.

On to `CC(C)(NS(=O)(=O)c1ccccc1OC(F)(F)F)C(=O)NC1C2CC3CC(C2)CC1C3` (stereo not shown) [compound 25, N-(adamantane-2-yl)-2-methyl-2-(2-(trifluoromethoxy)phenylsulfonamido)propanamide], for which the IC50 at mouse 11β-HSD1 stood at 0.42 µM; on human 11β-HSD1, 0.045 µM.

Take `CC(C)(NS(=O)(=O)c1cccc([N+](=O)[O-])c1)C(=O)NC1C2CC3CC(C2)CC1C3` (stereo not shown) [compound 66, N-(adamantane-2-yl)-2-methyl-2-(3-nitrophenylsulfonamido)propanamide]: the concentration for half-maximal inhibition (IC50) on mouse 11β-HSD1 was determined as 0.914 µM; on human 11β-HSD1 it was 0.511 µM.

Regarding `CC(C)(NS(=O)(=O)c1ccc(F)cc1Cl)C(=O)NC1C2CC3CC1CC(O)(C3)C2` (stereo not shown) [compound 80, N-(5-hydroxyadamantane-2-yl)-2-methyl-2-(4-fluoro-2-chlorophenylsulfonamido)propan amide], the IC50 at mouse 11β-HSD1 was found to be 0.213 µM; against human 11β-HSD1 it was 0.072 µM.

`NC(=O)C12CC3CC(C1)C(NC(=O)C1(NS(=O)(=O)c4ccccc4C(F)(F)F)CCCC1)C(C3)C2` (stereo not shown) [compound 172, N-4-(1-(2-trifluoromethylphenylsulfonamido)cyclopentanecarboxyamido)adamantane-1-carboxyamide]: the IC50 on mouse 11β-HSD1 was determined as 0.053 µM; on human 11β-HSD1, 0.016 µM.

As to `CC(C)c1ccc(S(=O)(=O)NC(C)(C)C(=O)NC2C3CC4CC(C3)CC2C4)cc1` (stereo not shown) [compound 57, N-(adamantane-2-yl)-2-methyl-2-(4-isopropylphenylsulfonamido)propanamide], the IC50 against mouse 11β-HSD1 worked out at 1.32 µM; at human 11β-HSD1 it was 1.04 µM.

In the case of `COc1ccc(S(=O)(=O)NC(C)(C)C(=O)NC2C3CC4CC2CC(C(N)=O)(C4)C3)c(OC)c1` (stereo not shown) [compound 129], the concentration for half-maximal inhibition (IC50) on mouse 11β-HSD1 was 0.589 µM; against human 11β-HSD1, 0.096 µM.

For the compound `NC(=O)C12CC3CC(C1)C(NC(=O)C1(NS(=O)(=O)c4ccccc4N)CCC1)C(C3)C2` (stereo not shown) [compound 221, N-4-(1-(2-aminophenylsulfonamido)cyclobutanecarboxyamido)adamantane-1-carboxyamide], the IC50 against mouse 11β-HSD1 amounted to 0.151 µM; on human 11β-HSD1, 0.079 µM.

As to `O=C(NCCO)C12CC3CC(C1)C(NC(=O)C1(NS(=O)(=O)c4ccccc4Cl)CCC1)C(C3)C2` (stereo not shown) [compound 232], the half-maximal inhibitory concentration (IC50) against mouse 11β-HSD1 and at human 11β-HSD1 was above 2.5 µM throughout.

On to `CCN(C(C)(C)C(=O)NC1C2CC3CC1CC(C(N)=O)(C3)C2)S(=O)(=O)c1ccccc1Cl` (stereo not shown) [compound 217], for which the IC50 against mouse 11β-HSD1 was found to be 0.098 µM; on human 11β-HSD1 it was 0.004 µM.

`Cc1cc(F)ccc1S(=O)(=O)NC(C)(C)C(=O)NC1C2CC3CC(C2)CC1C3` (stereo not shown) [compound 39, N-(adamantane-2-yl)-2-methyl-2-(4-fluoro-2-methylphenylsulfonamido)propanamide]: the results for the half-maximal inhibitory concentration (IC50) at mouse 11β-HSD1 and on human 11β-HSD1 were 0.561 µM and 0.043 µM, respectively.

Turning to `CC(C)(NS(=O)(=O)c1ccc(-c2ccccc2)cc1)C(=O)NC1C2CC3CC(C2)CC1C3` (stereo not shown) [compound 42, N-(adamantane-2-yl)-2-methyl-2-([1,1-biphenyl]-4-ylsulfonamido)propanamide], the results for the half-maximal inhibitory concentration (IC50) against mouse 11β-HSD1 and against human 11β-HSD1 were 1.7 µM and 1.8 µM, respectively.

With `CC(C)(NS(=O)(=O)c1cc(C(F)(F)F)cc(C(F)(F)F)c1)C(=O)NC1C2CC3CC(C2)CC1C3` (stereo not shown) [compound 49, N-(adamantane-2-yl)-2-methyl-2-(3,5-ditrifluoromethylphenylsulfonamido)propanamide], the figures for the IC50 against mouse 11β-HSD1 and against human 11β-HSD1 were above 2.5 µM and 1.35 µM, respectively.

With `CC(C)(NS(=O)(=O)Cc1ccccc1Cl)C(=O)NC1C2CC3CC(C2)CC1C3` (stereo not shown) [compound 34, N-(adamantane-2-yl)-2-methyl-2-((2-chlorophenyl)methylsulfonamido)propanamide], the IC50 is 0.7 µM against mouse 11β-HSD1 and 0.048 µM against human 11β-HSD1.

For the compound `CC(C)(NS(=O)(=O)c1ccc(Cl)cc1Cl)C(=O)NC1C2CC3CC(C2)CC1C3` (stereo not shown) [compound 46, N-(adamantane-2-yl)-2-methyl-2-(2,4-dichlorophenylsulfonamido)propanamide], the results for the IC50 against mouse 11β-HSD1 and at human 11β-HSD1 were 0.621 µM and 0.105 µM, respectively.

As for `NC(=O)C12CC3CC(C1)C(NC(=O)C1(NS(=O)(=O)c4c(Cl)cccc4Cl)CCCC1)C(C3)C2` (stereo not shown) [compound 175, N-4-(1-(2,6-dichlorophenylsulfonamido)cyclopentanecarboxyamido)adamantane-1-carboxyamide], the IC50 at mouse 11β-HSD1 came out at 0.003 µM; on human 11β-HSD1, 0.006 µM.

In the case of `CC(C)(NS(=O)(=O)c1ccc(OC(F)F)cc1)C(=O)NC1C2CC3CC1CC(C(N)=O)(C3)C2` (stereo not shown) [compound 93, N-4-(2-(4-difluoromethoxyphenylsulfonamido)-2-methylpropanamido)adamantane-1-carboxyamide], the IC50 against mouse 11β-HSD1 amounted to 0.571 µM; against human 11β-HSD1, 0.153 µM.

On to `CC(C)(NS(=O)(=O)c1ccccc1C(N)=O)C(=O)NC1C2CC3CC(C2)CC1C3` (stereo not shown) [compound 56], for which the IC50 against mouse 11β-HSD1 is above 2.5 µM; against human 11β-HSD1, 0.532 µM.

Take “N-4-(2-methoxy-6-fluoro-N-ethylphenylsulfonamido)-2-methylpropanamido)adamantane-1-carboxyamide [compound 214]”: the half-maximal inhibitory concentration (IC50) against mouse 11β-HSD1 was determined as 0.006 µM; against human 11β-HSD1, 0.012 µM.

As for `NC(=O)C12CC3CC(C1)C(NC(=O)C1(NS(=O)(=O)c4ccccc4OC(F)(F)F)CCC1)C(C3)C2` (stereo not shown) [compound 160, N-4-(1-(2-trifluoromethoxyphenylsulfonamido)cyclobutanecarboxyamido)adamantane-1-carboxyamide], the values for the 50% inhibitory concentration (IC50) against mouse 11β-HSD1 and at human 11β-HSD1 were 0.113 µM and 0.018 µM, respectively.

The values are drawn from patent US9073830B2 (Hyundai Pharm Co., Ltd., priority 2011, dated 2015).
